Measured values as given in US20210255193A1, “LYSINE REACTIVE PROBES AND USES THEREOF” (The Scripps Research Institute, priority 2017, published 2021).

Tests used:
Test in all cases: competitive isoTOP-ABPP
Conditions in all cases: 50 uM_231_sol_in vitro
HK1 Hexokinase-1 = biological target: T1, HK1 Hexokinase-1 (Homo sapiens, UniProt P19367); format: binding
T1 construct: isoTOP-ABPP experiments performed in cell lysates (in vitro); endogenous in cells; host or cells: soluble proteome of human cancer cell lines (MDA-MB-231; Ramos and Jurkat also prepared)
T1 sequence (P19367 1-917): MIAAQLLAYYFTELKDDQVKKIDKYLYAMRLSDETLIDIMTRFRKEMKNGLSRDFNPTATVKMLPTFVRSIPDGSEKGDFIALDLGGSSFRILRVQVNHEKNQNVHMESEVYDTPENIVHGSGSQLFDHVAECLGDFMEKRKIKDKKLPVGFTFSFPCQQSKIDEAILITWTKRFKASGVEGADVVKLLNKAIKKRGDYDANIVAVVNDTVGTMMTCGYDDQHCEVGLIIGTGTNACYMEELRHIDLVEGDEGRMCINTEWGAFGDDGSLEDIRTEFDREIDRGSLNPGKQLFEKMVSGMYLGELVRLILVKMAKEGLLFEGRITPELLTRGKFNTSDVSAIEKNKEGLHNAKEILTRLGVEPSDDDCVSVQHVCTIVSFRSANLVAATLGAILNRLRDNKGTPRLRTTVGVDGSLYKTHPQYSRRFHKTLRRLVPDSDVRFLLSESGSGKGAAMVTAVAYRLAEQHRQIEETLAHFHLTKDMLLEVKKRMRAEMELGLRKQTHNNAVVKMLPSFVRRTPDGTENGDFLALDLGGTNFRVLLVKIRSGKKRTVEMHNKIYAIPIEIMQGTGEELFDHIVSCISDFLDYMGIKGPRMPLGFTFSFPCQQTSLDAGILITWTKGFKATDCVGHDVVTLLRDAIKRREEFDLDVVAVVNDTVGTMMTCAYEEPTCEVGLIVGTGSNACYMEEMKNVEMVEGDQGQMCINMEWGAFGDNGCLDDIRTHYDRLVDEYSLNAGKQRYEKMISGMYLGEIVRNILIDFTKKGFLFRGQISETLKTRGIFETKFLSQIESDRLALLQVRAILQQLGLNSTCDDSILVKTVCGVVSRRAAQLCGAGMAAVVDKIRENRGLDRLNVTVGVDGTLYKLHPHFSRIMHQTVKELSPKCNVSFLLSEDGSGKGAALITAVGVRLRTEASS
Description: (§1) In vitro covalent fragment treatment for isoTOP-ABPP. All compounds were made up as solutions in DMSO (100×) and were used at a final concentration of 50 μM for activated esters and 100 μM for guanidinylating agents. For each profiling sample, 0.5 ml of lysate was treated with 5 μl of the 100× compound stock solution or 5 μl of DMSO. Samples were treated with activated esters for
(§2) STP-alkyne labeling and click chemistry. For concentration-dependent reactivity measurements by isoTOP-ABPP, 0.5 ml proteome aliquots were treated at ambient temperature with 1 mM STP-alkyne 1 (5 μl of 100 mM stock in DMSO) and 0.1 mM STP alkyne 1 (5 μl of 10 mM stock in DMSO), respectively. For competitive isoTOP-ABPP, after in vitro fragment treatment (detailed above), the samples were labeled for 1 h at ambient temperature with 0.1 mM STP-alkyne 1 (5 μl of 10 mM stock in DMSO). Samples were conjugated by copper-mediated azide-alkyne cycloaddition (CuAAC) to either the light (1 mM STP-alkyne or fragment treated) or heavy (0.1 mM STP-alkyne or DMSO treated) TEV tags (10 μl of 5 mM stocks in DMSO, final concentration=100 μM) using tris(2-carboxyethyl)phosphine hydrochloride
(§3) R value calculation and processing. The ratios of light and heavy MS1 peaks for each unique peptide were quantified with a CIMAGE software using default parameters (3 MS1 acquisitions per peak and signal to noise threshold set to 2.5). For reactivity measurements by isoTOP-ABPP, the R value was calculated from the ratio of MS1 peak areas, comparing the 1 mM STP alkyne sample (light TEV tag) with the 0.1 mM STP alkyne sample (heavy TEV tag). For competitive isoTOP-ABPP, the R value was calculated from the ratio of MS1 peak areas, comparing the DMSO treated sample (heavy TEV tag) with the compound treated sample (light TEV tag). […] Ratios for unique peptide entries are calculated for each experiment; overlapping peptides with the same modified lysine (for example, different charge states, MudPIT chromatographic steps or tryptic termini) are grouped together and the median ratio is reported as the final ratio (R). The peptide ratios reported by CIMAGE were further filtered to ensure the removal or correction of low-quality ratios in each individual data set. The quality filters applied were the following: removal of half tryptic peptides; for ratios with high standard deviations from the median (90% of the median or above) the lowest ratio was taken instead of the median; removal of peptides with R=20 and only a single MS2 event triggered during the elution of the parent ion; manual annotation of all the peptides with ratios of 20, removing any peptides with low quality elution profiles that remained after the previous curation steps (only done for competitive isoTOP-ABPP).
(§4) Cross-data processing for fragment screening. For compound treated samples, biological replicates of the same condition were averaged, if the standard deviation was below 60% of the mean; otherwise, for lysines with at least one R value <4 for a particular compound, the lowest value of the ratio set was taken. For lysines, where all R values for a particular compound were ≥4, the average was reported. For peptides containing several possible modified lysines, the lysine with the highest number of quantification events was used for analysis and the remaining, redundant peptides were reported as alternative modification sites. Peptides included in the aggregate dataset (those used for further bioinformatics and statistical analyses) were required to have been quantified in 2 experiments for competitive isoTOP-ABPP. Lysines were categorized as liganded, if they had at least one ratio R≥4 (hit fragments). For liganded lysines with R=20 for all liganding events, lysines were required to have been quantified with R=20 in two separate experiments and were further required to have been quantified with R<20 in one additional experiment.

[1] = biological target: T2, ABCE1 ATP-binding cassette sub-family E member 1 (Homo sapiens, UniProt P61221)
T2 construct: isoTOP-ABPP experiments performed in cell lysates (in vitro); endogenous in cells; host or cells: soluble proteome of human cancer cell lines (MDA-MB-231, Ramos, Jurkat)
Description: as §1, §2, §3, §4

[2] = biological target: T3, MAP1LC3B Microtubule-associated proteins 1A/1B light chain (Homo sapiens, UniProt Q9GZQ8); format: binding
T3 construct: isoTOP-ABPP experiments performed in cell lysates (in vitro); endogenous in cells; host or cells: soluble proteome of human cancer cell lines (MDA-MB-231; Ramos and Jurkat also prepared)
Description: as §1, §2, §3, §4

isoTOP-ABPP ratio, lysine P19367_K510 (HK1 Hexokinase-1): 0.8
isoTOP-ABPP ratio, lysine P61221_K191 [1]: 1.0
isoTOP-ABPP ratio, lysine P61221_K478 [1]: 1.1
isoTOP-ABPP ratio, lysine Q9GZQ8_K51 [2]: 0.8
SMILES: O=C(Oc1c(F)c(F)cc(F)c1F)c1cc(C(F)(F)F)cc(C(F)(F)F)c1 [fragment 48, 2,3,5,6-Tetrafluorophenyl 3,5-bis(trifluoromethyl)benzoate]
